Tested on: HeLa cells
Assay: Proliferation assay, crystal violet staining
Details: Homo sapiens, 96 h, read-out: Inhibition of HeLa cell proliferation, HeLa cells, 4 days incubation

SMILES | IC50 [nM]
Cc1cccc(-c2cc(N3CCOCC3)nc3c(-c4ccn[nH]4)nccc23)c1C [Example 312, 4-(2,3-dimethylphenyl)-2-(morpholin-4-yl)-8-(1H-pyrazol-5-yl)-1,7-naphthyridine] | > 3000
CCn1nc(C(F)(F)F)cc1-c1cc(N2CCOC[C@H]2C)nc2c(-c3ccn[nH]3)nccc12 [Example 119, 4-[1-ethyl-3-(trifluoromethyl)-1H-pyrazol-5-yl]-2-[(3R)-3-methylmorpholin-4-yl]-8-(1H-pyrazol-5-yl)-1,7-naphthyridine] | 425
C[C@@H]1COCCN1c1cc(N(C)C2CC2)c2ccnc(-c3ccn[nH]3)c2n1 [Example 85, N-cyclopropyl-N-methyl-2-[(3R)-3-methylmorpholin-4-yl]-8-(1H-pyrazol-5-yl)-1,7-naphthyridin-4-amine] | 438
C[C@@H]1COCCN1c1cc(C2CCNCC2)c2ccnc(-c3ccn[nH]3)c2n1 [Example 251, 2-[(3R)-3-methylmorpholin-4-yl]-4-(piperidin-4-yl)-8-(1H-pyrazol-5-yl)-1,7-naphthyridine] | 800
CC(C)Oc1ncccc1-c1cc(N2CCOC[C@H]2C)nc2c(-c3ccn[nH]3)nccc12 [Example 219, 2-[(3R)-3-methylmorpholin-4-yl]-4-[2-(propan-2-yloxy)pyridin-3-yl]-8-(1H-pyrazol-5-yl)-1,7-naphthyridine] | 2980
c1cncc(-c2cc(N3CCOCC3)nc3c(-c4ccn[nH]4)nccc23)c1 [Example 350, 2-(morpholin-4-yl)-8-(1H-pyrazol-5-yl)-4-(pyridin-3-yl)-1,7-naphthyridine] | > 3000
Cc1cnn(C)c1-c1cc(N2CCOC[C@H]2C)nc2c(-c3ccn[nH]3)nccc12 [Example 114, 4-(1,4-dimethyl-1H-pyrazol-5-yl)-2-[(3R)-3-methylmorpholin-4-yl]-8-(1H-pyrazol-5-yl)-1,7-naphthyridine] | 177

Other lines, results leading:

IC50 [nM] | SMILES
> 3000 | [O-][S+](c1ccccc1)c1cc(N2CCOCC2)nc2c(-c3ccn[nH]3)nccc12 (stereo not drawn) [Example 201, 2-(morpholin-4-yl)-4-(phenylsulfinyl)-8-(1H-pyrazol-5-yl)-1,7-naphthyridine]
316 | C[C@@H]1COCCN1c1cc(-c2cccc(S(C)(=O)=O)c2)c2ccnc(-c3cc[nH]n3)c2n1 [Example 28, 4-(3-methanesulphonylphenyl)-2-((R)-3-methylmorpholin-4-yl)-8-(2H-pyrazol-3-yl)-[1,7]naphthyridine]
604 | C[C@@H]1COCCN1c1cc(-c2sccc2Cl)c2ccnc(-c3ccn[nH]3)c2n1 [Example 102, 4-(3-chloro-2-thienyl)-2-[(3R)-3-methylmorpholin-4-yl]-8-(1H-pyrazol-5-yl)-1,7-naphthyridine]
374 | Cc1sccc1-c1cc(N2CCOC[C@H]2C)nc2c(-c3ccn[nH]3)nccc12 [Example 103, 2-[(3R)-3-methylmorpholin-4-yl]-4-(2-methyl-3-thienyl)-8-(1H-pyrazol-5-yl)-1,7-naphthyridine]
1210 | Cc1cc(-c2cc(N3CCOC[C@H]3C)nc3c(-c4ccn[nH]4)nccc23)cs1 [Example 234, 2-[(3R)-3-methylmorpholin-4-yl]-4-(5-methylthiophen-3-yl)-8-(1H-pyrazol-5-yl)-1,7-naphthyridine]
975 | COc1ccc(Sc2cc(N3CCOC[C@H]3C)nc3c(-c4ccn[nH]4)nccc23)cc1 [Example 222, 4-[(4-methoxyphenyl)sulfanyl]-2-[(3R)-3-methylmorpholin-4-yl]-8-(1H-pyrazol-5-yl)-1,7-naphthyridine]
> 3000 | Cc1cc(-c2cc(N3CCOCC3)nc3c(-c4ccn[nH]4)nccc23)n[nH]1 [Example 214, 4-(5-methyl-1H-pyrazol-3-yl)-2-(morpholin-4-yl)-8-(1H-pyrazol-5-yl)-1,7-naphthyridine]
1490 | Cc1cc(S(C)(=O)=O)ncc1-c1cc(N2CCOCC2)nc2c(-c3ccn[nH]3)nccc12 [Example 6, 4-[4-methyl-6-(methylsulfonyl)pyridin-3-yl]-2-(morpholin-4-yl)-8-(1H-pyrazol-5-yl)-1,7-naphthyridine]
